Laboratory results: EP4545548B1, “INSECT NEUROPEPTIDES” (Solasta Bio Limited, priority 2023, dated 2025)
Where a SMILES comes first, the peptide text is derived from it. [ ]: non-standard residue; d: D form. pGlu = O=C1CC[C@@H](C(=O)O)N1

Test system: bees
Assay: Bee oral toxicity test adapted from OECD Test No. 247 (Bumblebee, Acute Oral Toxicity Test)
Assay type: in vivo
Conditions: % survival after 96 hours, compared to Imidacloprid, Figure 9
Description: Bee oral testing protocol was carried out adapted from OECD Test No. 247: Bumblebee, Acute Oral Toxicity Test. The toxicity of SB-P-47 was compared with a negative control of sucrose or vehicle, and with a current commercial insecticide Imidacloprid.

CC[C@H](C)[C@H](NC(=O)[C@H](C)NC(=O)[C@@H]1CCC(=O)N1)C(=O)N[C@@H](CCSC)C(=O)N[C@@H](C)C(=O)N[C@@H](CCCNC(=N)N)C(=O)N1CCC[C@H]1C(=O)N[C@@H](CCC(N)=O)C(=O)N[C@H](C(=O)N1CCC[C@H]1C(=O)N[C@@H](CCCNC(=N)N)C(=O)N[C@@H](CC(C)C)C(N)=O)C(C)C [SB-P-47, [Pyr]-AIMARPQVPRL-[NH2]] ([pGlu]AIMARPQVPRL-NH2)
toxicity to key pollinator species such as bees: far lower toxicity
